Active and inactive are the calls of the source. The calls are words filed in the database; no cut-off is given here.
Tests used:
Acetylcholinesterase [1] = target: T1, Acetylcholinesterase (Homo sapiens, UniProt P22303); assay: Inhibition of human recombinant AChE using acetylthiocholine iodide as substrate up to 50 uM preincubated with enzyme for 20 mins prior to substrate addition by Ellman's method
Beta-secretase 1 = Beta-secretase 1 (Homo sapiens, UniProt P56817); assay: Inhibition of human recombinant BACE1 using M-2420 as substrate preincubated with enzyme for 1 hr by FRET assay
SH-SY5Y = assay: (§1) Neurotoxicity against human SH-SY5Y cells assessed as inhibition of cell viability after 24 hrs by MTT assay; assay type: toxicity, cell-based; details: sh-sy5y, 24 h
Acetylcholinesterase [2] = target: T1, Acetylcholinesterase
Description: Inhibition of human recombinant AChE using acetylthiocholine iodide as substrate preincubated with enzyme for 20 mins prior to substrate addition by Ellman's method

[3] = as §1; assay type: toxicity, cell-based; details: SH-SY5Y cells

Beta-secretase 1, sequence (P56817 whole entry): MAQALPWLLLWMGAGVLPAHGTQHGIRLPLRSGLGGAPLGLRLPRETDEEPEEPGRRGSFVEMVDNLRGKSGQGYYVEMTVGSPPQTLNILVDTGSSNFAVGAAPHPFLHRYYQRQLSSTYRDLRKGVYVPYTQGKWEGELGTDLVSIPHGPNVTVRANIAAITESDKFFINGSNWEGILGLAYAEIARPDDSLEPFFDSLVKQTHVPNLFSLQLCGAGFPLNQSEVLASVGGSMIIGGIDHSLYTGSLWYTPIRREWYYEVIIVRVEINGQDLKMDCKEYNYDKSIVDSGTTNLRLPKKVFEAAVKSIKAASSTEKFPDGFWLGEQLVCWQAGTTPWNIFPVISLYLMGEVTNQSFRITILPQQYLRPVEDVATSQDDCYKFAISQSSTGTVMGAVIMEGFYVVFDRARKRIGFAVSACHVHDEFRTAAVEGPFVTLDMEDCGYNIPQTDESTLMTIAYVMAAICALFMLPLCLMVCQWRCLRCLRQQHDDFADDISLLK
T1 sequence (P22303 whole entry): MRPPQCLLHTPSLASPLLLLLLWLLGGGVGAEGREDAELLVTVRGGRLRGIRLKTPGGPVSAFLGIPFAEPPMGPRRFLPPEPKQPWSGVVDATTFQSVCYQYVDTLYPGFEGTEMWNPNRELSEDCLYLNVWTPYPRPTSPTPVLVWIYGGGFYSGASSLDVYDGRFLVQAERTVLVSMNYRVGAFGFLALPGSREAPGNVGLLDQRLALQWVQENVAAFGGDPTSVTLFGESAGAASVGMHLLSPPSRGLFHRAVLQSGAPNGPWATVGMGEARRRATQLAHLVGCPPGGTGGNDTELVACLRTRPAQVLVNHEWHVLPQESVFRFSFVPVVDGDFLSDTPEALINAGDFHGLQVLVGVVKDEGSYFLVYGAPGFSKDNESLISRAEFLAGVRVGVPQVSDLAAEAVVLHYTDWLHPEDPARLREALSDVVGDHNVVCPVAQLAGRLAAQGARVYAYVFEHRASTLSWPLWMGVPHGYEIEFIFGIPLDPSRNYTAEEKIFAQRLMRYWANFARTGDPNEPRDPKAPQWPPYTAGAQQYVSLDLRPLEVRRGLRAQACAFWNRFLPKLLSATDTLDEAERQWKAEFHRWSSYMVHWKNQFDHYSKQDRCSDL

| Compound | inhibition (Acetylcholinesterase [1]) | IC50 (Beta-secretase 1) | further results |
| --- | --- | --- | --- |
| CN(Cc1ccccc1)Cc1ccc(/C=C2\Cc3ccc(OCCCCCN4CCN(OC(=O)C(C)(C)C)CC4)cc3C2=O)cc1 | inactive | 3.21 µM | Activity (SH-SY5Y): Non-toxic |
| CN(Cc1ccccc1)Cc1ccc(/C=C2\Cc3ccc(OCCCCCN4CCC(n5c(=O)[nH]c6ccccc65)CC4)cc3C2=O)cc1 | inactive | – | – |
| CN(Cc1ccccc1)Cc1ccc(/C=C2\Cc3ccc(OCCCCCN4CCC(=C(c5ccc(F)cc5)c5ccc(F)cc5)CC4)cc3C2=O)cc1 | inactive | 5.95 µM | – |
| CN(Cc1ccccc1)Cc1ccc(/C=C2\CCc3cc(OCCCCCN4CCN(C(c5ccc(F)cc5)c5ccc(F)cc5)CC4)ccc3C2=O)cc1 | inactive | – | – |
| CCOC(=O)C1(c2ccccc2)CCN(CCCCCOc2ccc3c(c2)C(=O)/C(=C/c2ccc(CN(C)Cc4ccccc4)cc2)C3)CC1 | inactive | 8.23 µM | – |
| CN(Cc1ccccc1)Cc1ccc(/C=C2\CCc3cc(OCCCCCN4CCN(Cc5ccc(F)cc5)CC4)ccc3C2=O)cc1 | – | – | IC50 (Acetylcholinesterase [2]): 7.83 µM |
| CN(Cc1ccccc1)Cc1ccc(/C=C2\Cc3ccc(OCCCCCN4CCN(Cc5ccc(F)cc5)CC4)cc3C2=O)cc1 | inactive | – | – |
| CN(Cc1ccccc1)Cc1ccc(/C=C2\Cc3ccc(OCCCCCN4CCCCC4)cc3C2=O)cc1 | – | – | IC50 at 24 h [3]: 23.3 µM |
| CN(Cc1ccccc1)Cc1ccc(/C=C2\Cc3ccc(OCCCCCN4CCC(c5ccccc5)CC4)cc3C2=O)cc1 | – | 13.4 µM | IC50 (Acetylcholinesterase [2]): 62 µM |
| CN(Cc1ccccc1)Cc1ccc(/C=C2\Cc3ccc(OCCCCCN4CCN(c5ccccc5)CC4)cc3C2=O)cc1 | inactive | 11.7 µM | – |
| CN(Cc1ccccc1)Cc1ccc(/C=C2\Cc3ccc(OCCCCCN4CCN(C(c5ccc(F)cc5)c5ccc(F)cc5)CC4)cc3C2=O)cc1 | inactive | 2.49 µM | Activity (SH-SY5Y): Non-toxic |
